Here are results for four sequences from US12054752B2, “HLA-A2 subtype-specific PLK1-derived epitope inducing antigen-specific t cell immune response to PLK1 protein” (THE CATHOLIC UNIVERSITY OF KOREA INDUSTRY-ACADEMIC …, priority 2017, dated 2024).

Test [1] has as its system T2 cell lines expressing HLA-A2 molecules. Put plainly: IFN-γ EliSpot of spleen CD8+T cells from mice electroporated with multi-epitope PLK1 recombinant DNA, against T2 cells sensitized with each epitope peptide. Type of test: cell-based, HLA-A2 transgenic mice. The following applies: CD8+T cells of spleens after electroporation with PLKWT / PLKOPT recombinant DNA 3 times at 7-day intervals, FIGS. 2A and 2B. The source says: FIGS. 2A and 2B illustrate the EliSpot results confirming immune responses occurring in the spleen after HLA-A2 transgenic mice are subjected to electroporation with a recombinant DNA (FIG. 2A) including multiple wild-type PLK1 epitopes and a recombinant DNA (FIG. 2B) including multiple PLK1 epitopes optimized for recombination.
In order to use a DNA-based vaccination strategy inducing multi-epitope-specific T cell immune responses, an amino acid sequence of the predicted PLK1-derived HLA-A2 multi-epitope was linked to a furin-sensitive linker (SGSG) amino acid sensitive to a proteolytic enzyme of the Golgi apparatus and cloned into a pCI expression vector (see FIG. 1).
Recombinant DNA, PLKWT and PLKOPT were transfected into HLA-A2 transgenic mice and biological electric shock therapy was performed at 95 V (4×65 ms pulses with repoling) using an Electro square wave electroporation device (ECM830; BTX; San Diego, CA). After the biological electric shock therapy was performed 3 times at 7-day intervals, CD8+T cells of mouse spleens were isolated. IFN-γ EliSpot was performed by sensitizing T2 cell lines expressing HLA-A2 molecules with each predicted epitope peptide and using T2 cell lines as a target cell.

For the next test, the system named is CD8+T cells. Put plainly: Flow cytometry of spleen CD8+T cells expressing IFN-γ and CD107a/b after dendritic cell vaccination and peptide-based TriVax vaccination. Type of test: in vivo, HLA-A2 transgenic mice. The following applies: spleen T cells cultured with PLK1 antigen; compared to the groups using PLK1477 and PLK1541 antigen-peptides; FIG. 3. The text has this: FIG. 3 illustrates flow cytometry analysis results confirming CD8+T cell immune responses of PLK1123 (SDFVFVVLEL, SEQ ID NO: 1), PLK1477 (TLLKYFRNYM, SEQ ID NO: 2), and PLK1541/21 (LILCPLMAAV, SEQ ID NO: 3) among PLK-1-derived epitope candidates specific for HLA-A2 with CD107a/b.
Next, HLA-A2-binding PLK1123 (SDFVFVVLEL, SEQ ID NO: 1), PLK1477 (TLLKYFRNYM, SEQ ID NO: 2), and PLK1541 (LILCPLMAAV, SEQ ID NO: 3) peptides confirmed as dominant epitopes were selected in a multi-epitope DNA-based vaccination experiment in the HLA-A2 transgenic mice, and immunized into the HLA-As transgenic mice by a dendritic cell vaccination and peptide-based TriVax vaccination (CD40 antibody/Poly-IC/epitope) strategy. After an immune response to each epitope-peptide was induced through this, T cells of the spleens were obtained and each cultured with a PLK1 antigen, and then CD8+T cells expressing IFN-γ and CD107a/b were confirmed using flow cytometry.

In test [2] the test system is T2 cell lines and HLA-A2 positive tumor cells. Put plainly: IFN-γ EliSpot of CD8+T cells from peptide-immunized mice against peptide-sensitized T2 cells and tumor cells. Type of test: in vivo, HLA-A2 transgenic mice. Conditions: targets CCRF-SB, THP-1, SKM-1, SK-MEL-5 (HLA-A2 positive), HL-60 and SK-MEL-3 (HLA-A2 negative), FIG. 4A to 4C. The text has this: FIG. 4A to 4C illustrate the EliSpot results confirming immune responses occurring by immunization of HLA-A2 transgenic mice with PLK1123 (SDFVFVVLEL, SEQ ID NO: 1)(FIG. 4A), PLK1477 (TLLKYFRNYM, SEQ ID NO: 2)(FIG. 4B), and PLK1541/21 (LILCPLMAAV, SEQ ID NO: 3)(FIG. 4C) among PLK1-derived epitope candidates specific for HLA-2 by a dendritic cell vaccination and peptide-based vaccination strategy.
In order to examine CD8+T cell immune responses, an immune response occurring in the spleen was confirmed by immunization into HLA-A2 transgenic mice by a dendritic cell vaccination and peptide-based vaccination strategy. For this purpose, HLA-A2-binding PLK1123 ([…], SEQ ID NO: 1), PLK1477 (TLLKYFRNYM, SEQ ID NO: 2), and PLK1541 (LILCPLMAAV, SEQ ID NO: 3) peptides confirmed as dominant epitopes were selected in a multi-epitope DNA-based vaccination experiment in the HLA-A2 transgenic mice, and immunized into the HLA-As transgenic mice by a dendritic cell vaccination and peptide-based TriVax vaccination (CD40 antibody/Poly-IC/epitope) strategy. After an immune response to each epitope-peptide was induced through this, CD8+T cells were obtained by antibody-binding magnetic cell sorting, and used as effector cells for confirming an antigen-specific T cell response. […]

“ILCPLMAAV (Human Polo-like kinase-1) [PLK1542]”: in test [1], the “ability to produce IFN-γ by the activation of CD8+T cells for T2 cell lines sensitized with each epitope peptide” value (shortened to “ability to produce IFN-γ”) is “high levels”. On the same count and under the same terms, with “LILCPLMAAV (Human Polo-like kinase-1) [PLK1541 21]” the entry was “high levels”.

Regarding “SDFVFVVLEL (Human Polo-like kinase-1) [PLK1123]”, the “rate of antigen-specific CD8+T cells (IFN-γ and CD107a/b)” value in the test on CD8+T cells is “relatively high rate”. Besides, the “CD8+T cell responses specific for T2 cell lines and HLA-A2 positive tumor cells sensitized with PLK1-derived antigen-peptides” value in test [2] is on record as “observed”. Also, the “ability to produce IFN-γ” value in test [1] is listed as “high levels”. Regarding “TLLKYFRNYM (Human Polo-like kinase-1) [PLK1477]”, the “ability to produce IFN-γ” value in test [1] was “high levels”.
